Experimental data from US8314082B2, “Stilbene derivatives for ADP-ribosyl cyclase inhibitors” (Industrial Cooperation Foundation Chonbuk National …, priority 2006, dated 2012).

What was measured:
Assay type in all cases: biochemical
rat kidney ADPR-cyclase = test: ADPR-cyclase activity assay (cGDPR / e-ADPR fluorescence from NGD+ or e-NAD+); conditions: various concentrations
Method: (§1) FIGS. 1A and 1B show the inhibition of rat kidney ADPR-cyclase that was incubated with […] NGD^+ or e-NAD^+ in the presence of various concentrations of 4,4′-dihydrioxyazobenzene (DHAB) at 37° C. for 10 min and effects of DHAB on human CD38, rat brain, heart, spleen, and kidney ADPR-cyclase. FIGS. 1A and 1B are referred to as FIG. 1 herein.
(§2) Specific ADPR-cyclase activity was determined by measuring cyclic GDP-ribose (cGDPR) or etheno-ADP-ribose (e-cADPR) fluorometrically using NGD^+ or e-NAD^+ as a substrate [Greaff et al., Biochem. J. (2002)361:379-84]. Samples were incubated in the presence of 200 mM NGD^+ or e-NAD^+ with and without an appropriate agent in an assay buffer (25 mM HEPES, pH 7.4, 100 mM NaCl, and 0.1% Triton X-100) in a […]. The reaction mixture was incubated at 37° C. for 10 min. The reaction was stopped by adding […] trichloroacetic acid (10%). […] Fluorescence of cGDPR or e-ADPR in the solution was determined at excitation/emission wavelengths of 297/410 nm (HITACHI F-2000 fluorescence spectrophotometer). cADPR-hydrolase activity was determined by incubating cADPR with ADPR-cyclase or CD38 at 37° C. for 20 min. Hydrolysis of cADPR was analyzed by high performance liquid chromatography as described (White et al., 2000). […]

human CD38 = molecular target: T1, human CD38 (Homo sapiens, UniProt P28907); test: ADPR-cyclase activity assay, CD38; design: dose or concentration left out as unconfirmed
T1 sequence (P28907 1-300): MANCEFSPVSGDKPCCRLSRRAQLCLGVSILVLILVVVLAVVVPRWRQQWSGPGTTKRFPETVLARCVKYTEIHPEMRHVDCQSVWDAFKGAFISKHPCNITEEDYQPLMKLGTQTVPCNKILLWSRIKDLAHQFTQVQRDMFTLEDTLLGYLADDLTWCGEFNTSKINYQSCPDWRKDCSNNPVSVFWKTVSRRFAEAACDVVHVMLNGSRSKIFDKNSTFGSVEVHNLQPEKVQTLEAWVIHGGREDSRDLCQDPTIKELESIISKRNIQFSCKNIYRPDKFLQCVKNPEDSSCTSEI
Method: as §1
as §2, with “of 200 mM” left out

[1] = test system: ADPR-cyclase purified partially from rat brain; test: ADPR-cyclase activity assay, brain enzyme; design: dose or concentration left out as unconfirmed
Method: as §1
as §2, with “of 200 mM” left out

[2] = test system: ADPR-cyclase purified partially from rat heart; test: ADPR-cyclase activity assay, heart enzyme; design: dose or concentration left out as unconfirmed
Method: as §1
as §2, with “of 200 mM” left out

[3] = test system: ADPR-cyclase purified partially from rat spleen; test: ADPR-cyclase activity assay, spleen enzyme; design: dose or concentration left out as unconfirmed
Method: as §1
as §2, with “of 200 mM” left out

- inhibition of generation of cGDPR and e-ADPR from NGD+ and e-NAD+ (rat kidney ADPR-cyclase): concentration-dependent
- sensitivity of enzyme activity to compound (human CD38): insensitive
- sensitivity of enzyme activity to compound [1]: insensitive
- sensitivity of enzyme activity to compound [2]: insensitive
- sensitivity of enzyme activity to compound [3]: insensitive
SMILES: Oc1ccc(N=Nc2ccc(O)cc2)cc1 [4,4′-DHAB, 4,4′-Dihydroxyazobenzene]
